Assay results as given in PMC9268025, “GC-MS/MS Quantification of EGFR Inhibitors, β-Sitosterol, Betulinic Acid, (+) Eriodictyol, (+) Epipinoresinol, and Secoisolariciresinol, in Crude Extract and Ethyl Acetate Fraction of Thonningia sanguinea” (Molecules, 2022).

Target: epidermal growth factor receptor (EGFR) (Homo sapiens, UniProt P00533)
Assay: ADP-Glo EGFR kinase inhibition assay (Promega V9261), eight concentrations
Type: biochemical

Sequence of epidermal growth factor receptor (EGFR) (P00533 25-1210): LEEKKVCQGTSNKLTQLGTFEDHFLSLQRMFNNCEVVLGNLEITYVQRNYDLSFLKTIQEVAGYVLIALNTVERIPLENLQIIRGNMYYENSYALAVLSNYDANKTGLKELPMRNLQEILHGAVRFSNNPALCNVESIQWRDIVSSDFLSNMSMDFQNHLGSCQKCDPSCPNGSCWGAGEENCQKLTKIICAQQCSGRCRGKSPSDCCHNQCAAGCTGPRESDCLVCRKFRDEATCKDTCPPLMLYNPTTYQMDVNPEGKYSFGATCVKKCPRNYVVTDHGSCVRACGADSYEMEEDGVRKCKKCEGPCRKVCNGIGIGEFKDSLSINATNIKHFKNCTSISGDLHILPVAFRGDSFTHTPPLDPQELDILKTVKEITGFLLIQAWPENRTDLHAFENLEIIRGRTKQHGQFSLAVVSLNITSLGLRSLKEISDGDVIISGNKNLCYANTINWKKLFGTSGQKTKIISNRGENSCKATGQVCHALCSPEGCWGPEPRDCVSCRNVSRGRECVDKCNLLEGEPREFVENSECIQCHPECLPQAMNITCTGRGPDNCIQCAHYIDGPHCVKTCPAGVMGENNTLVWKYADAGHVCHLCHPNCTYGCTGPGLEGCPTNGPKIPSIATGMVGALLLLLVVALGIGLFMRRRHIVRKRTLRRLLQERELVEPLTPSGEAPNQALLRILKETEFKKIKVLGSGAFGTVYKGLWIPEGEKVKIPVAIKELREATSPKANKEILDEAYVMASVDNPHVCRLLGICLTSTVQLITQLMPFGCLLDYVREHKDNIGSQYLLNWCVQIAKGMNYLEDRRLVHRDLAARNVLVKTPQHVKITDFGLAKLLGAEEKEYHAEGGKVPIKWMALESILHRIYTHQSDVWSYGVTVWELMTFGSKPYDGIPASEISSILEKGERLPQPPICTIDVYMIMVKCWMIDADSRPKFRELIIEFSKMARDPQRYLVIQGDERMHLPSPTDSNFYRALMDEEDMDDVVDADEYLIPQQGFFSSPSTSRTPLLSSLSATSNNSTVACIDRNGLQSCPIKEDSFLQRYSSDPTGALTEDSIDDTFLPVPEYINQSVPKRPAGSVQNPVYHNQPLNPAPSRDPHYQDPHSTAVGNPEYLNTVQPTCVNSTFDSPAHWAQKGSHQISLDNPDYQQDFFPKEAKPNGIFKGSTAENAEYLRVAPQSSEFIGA

IC50 [nM]	Compound
76.2	O=C1C[C@@H](c2ccc(O)c(O)c2)Oc2cc(O)cc(O)c21 [(+) Eriodictyol]
80.3	COc1cc(C[C@@H](CO)[C@H](CO)Cc2ccc(O)c(OC)c2)ccc1O [Secoisolariciresinol]
